Legend:
[1] = target: GDP-bound HRAS wild-type protein (Homo sapiens, UniProt P01112); assay: Binding to HRAS by surface plasmon resonance (SPR), Single Cycle Kinetics; settings: ratio of KD for GDP-bound HRAS wild-type protein to KD for KRAS, SPR
[2] = tested on: human lung cancer strain NCI-H441; assay: cells; settings: NCI-H441, 96 h, read-out: NCI-H441 IC50 (nM), NCI-H441 cell proliferation, 4 days, CellTiter-Glo;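 also: cell proliferation inhibition after four days measured by CellTiter-Glo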
[3] = target: GDP-bound NRAS wild-type protein (Homo sapiens, UniProt P01111); assay: Binding to NRAS by surface plasmon resonance (SPR), Single Cycle Kinetics; settings: ratio of KD for GDP-bound NRAS wild-type protein to KD for KRAS, SPR
GDP-bound NRAS wild-type protein, sequence (P01111 whole entry): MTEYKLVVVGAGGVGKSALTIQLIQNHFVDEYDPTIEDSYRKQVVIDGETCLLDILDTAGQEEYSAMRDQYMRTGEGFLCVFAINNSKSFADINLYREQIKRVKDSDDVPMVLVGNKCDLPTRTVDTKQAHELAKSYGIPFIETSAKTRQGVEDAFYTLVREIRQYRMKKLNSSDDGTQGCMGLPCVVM

[4] = target: GDP-bound KRAS wild-type protein (Homo sapiens, UniProt P01116); assay: Binding to KRAS by surface plasmon resonance (SPR), Single Cycle Kinetics; settings: SPR, Single Cycle Kinetics, GDP-bound KRAS wild-type protein; read-out: KRAS KD
GDP-bound KRAS wild-type protein, sequence (P01116 whole entry): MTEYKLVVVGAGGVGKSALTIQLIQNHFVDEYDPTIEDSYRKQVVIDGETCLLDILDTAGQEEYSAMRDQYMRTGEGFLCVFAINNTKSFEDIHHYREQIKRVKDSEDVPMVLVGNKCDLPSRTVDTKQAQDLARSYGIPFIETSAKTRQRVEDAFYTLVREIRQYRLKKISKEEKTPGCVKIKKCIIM

GDP-bound HRAS wild-type protein, sequence (P01112 whole entry): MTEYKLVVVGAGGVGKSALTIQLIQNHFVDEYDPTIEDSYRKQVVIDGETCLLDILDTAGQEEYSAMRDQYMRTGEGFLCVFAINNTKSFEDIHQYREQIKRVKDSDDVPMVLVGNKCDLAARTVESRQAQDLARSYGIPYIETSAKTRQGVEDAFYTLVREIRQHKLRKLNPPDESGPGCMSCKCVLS

Row | Compound | IC50 [2] [nM] | Kd [4] [nM] | HRAS/KRAS (KD ratio) [1] | NRAS/KRAS (KD ratio) [3]
1 | CCO[C@@H]1C[C@H]2C(=O)NC3(CC(C)(C)C3)C(=O)N(C)[C@@H](C3CCCC3)C(=O)N(C)[C@H](C3CCC3)CC(=O)N(C)[C@@H](CC3CC3)C(=O)N[C@@H]([C@@H](C)CC)C(=O)N(C)CC(=O)N(C)[C@H]3C/C=C\CCN(C3=O)[C@@H](Cc3ccc(C(F)(F)F)cc3)C(=O)N(C)CC(=O)N[C@@H](CCc3cc(F)c(C(F)(F)F)c(F)c3)C(=O)N2C1 [PP1635] | 36.3 | 0.64 | A (a compound having 10 or more and less than 20 is denoted as A) | B (a compound having 3 or more and less than 10 is denoted as B)
2 | CCCN(C)C(=O)[C@@H]1CC(=O)N(C)[C@@H](CC2CCC2)C(=O)N[C@@H]([C@@H](C)CC)C(=O)N(C)CC(=O)N(C)[C@H]2C/C=C\CCN(C2=O)[C@@H](Cc2ccc(C(F)(F)F)cc2)C(=O)N(C)CC(=O)N[C@@H](CCc2cc(F)c(C(F)(F)F)c(F)c2)C(=O)N2C[C@H](OCC)C[C@H]2C(=O)NC2(CCC2)C(=O)N(C)[C@@H](C2CCCC2)C(=O)N1C [PP1705] | 8 | 0.14 | A (a compound having 10 or more and less than 20 is denoted as A) | AA (a compound having 20 or more is denoted as AA)
3 | CC[C@H](C)[C@@H]1NC(=O)[C@H](C2CC2)N(C)C(=O)C[C@@H](C(=O)N(C)C)N(C)C(=O)[C@H](C2CCCC2)N(C)C(=O)C2(CCCC2)N(C)C(=O)[C@@H]2CCCN2C(=O)[C@H](CCc2cc(F)c(C(F)(F)F)c(F)c2)NC(=O)CN(C)C(=O)[C@H](Cc2ccc(C)cc2)N2CC/C=C\C[C@@H](C2=O)N(C)C(=O)CN(C)C1=O [PP1809] | 22.4 | 0.12 | B (a compound having 3 or more and less than 10 is denoted as B) | A (a compound having 10 or more and less than 20 is denoted as A)
4 | CCO[C@@H]1C[C@H]2C(=O)NC3(CC(C)(C)C3)C(=O)N(C)[C@@H](C3CCCC3)C(=O)N(C)[C@H](C(=O)N(C)CC)CC(=O)N(C)[C@@H](C3CC3)C(=O)N[C@@H]([C@@H](C)CC)C(=O)N(C)CC(=O)N(C)[C@H]3C/C=C\CCN(C3=O)[C@@H](Cc3ccc(C(F)(F)F)cc3)C(=O)N(C)CC(=O)N[C@@H](CCc3ccc(C(F)(F)F)c(OC)c3)C(=O)N2C1 [PP1981] | 20.7 | 0.1 | A (a compound having 10 or more and less than 20 is denoted as A) | A (a compound having 10 or more and less than 20 is denoted as A)
5 | CC[C@H](C)[C@@H]1NC(=O)[C@H](C2CCC2)N(C)C(=O)C[C@@H](C(=O)N(C)CC)N(C)C(=O)[C@H](C2CCCC2)N(C)C(=O)C2(CC(C)(C)C2)NC(=O)[C@@H]2C[C@H](C)CN2C(=O)[C@H](CCc2cc(F)c(C(F)(F)F)c(F)c2)NC(=O)CN(C)C(=O)[C@H](Cc2ccc(C(F)(F)F)cc2)N2CC/C=C\C[C@@H](C2=O)N(C)C(=O)CN(C)C1=O [PP1984] | 50.8 | 0.3 | A (a compound having 10 or more and less than 20 is denoted as A) | A (a compound having 10 or more and less than 20 is denoted as A)
6 | CCO[C@@H]1C[C@H]2C(=O)NC3(CC(C)(C)C3)C(=O)N(C)[C@@H](C3CCCC3)C(=O)N(C)[C@H](C(=O)N(C)C)CC(=O)N(C)[C@@H](CC)C(=O)N[C@@H]([C@@H](C)CC)C(=O)N(C)CC(=O)N(C)[C@H]3C/C=C\CCN(C3=O)[C@@H](Cc3ccc(C(F)(F)F)cc3)C(=O)N(C)CC(=O)N[C@@H](CCc3ccc(C(F)(F)F)c(Cl)c3)C(=O)N2C1 [PP1746] | 1.9 | 0.054 | A (a compound having 10 or more and less than 20 is denoted as A) | A (a compound having 10 or more and less than 20 is denoted as A)
7 | CCO[C@@H]1C[C@H]2C(=O)NC3(CC(C)(C)C3)C(=O)N(CC)[C@@H](C3CCCC3)C(=O)N(C)[C@H](C(=O)N(C)C)CC(=O)N(C)[C@@H](CC)C(=O)N[C@@H]([C@@H](C)CC)C(=O)N(C)CC(=O)N(C)[C@H]3C/C=C\CCN(C3=O)[C@@H](Cc3ccc(C(F)(F)F)cc3)C(=O)N(C)CC(=O)N[C@@H](CCc3cc(F)c(C(F)(F)F)c(F)c3)C(=O)N2C1 [PP1913] | 44 | 0.37 | A (a compound having 10 or more and less than 20 is denoted as A) | A (a compound having 10 or more and less than 20 is denoted as A)

Continued by falling IC50 [2], values first:

Row | IC50 [2] [nM] | Kd [4] [nM] | Compound | HRAS/KRAS (KD ratio) [1] | NRAS/KRAS (KD ratio) [3]
8 | 23 | 0.2 | CC[C@H](C)[C@@H]1NC(=O)[C@H](CC)N(C)C(=O)C[C@@H](C(=O)N(C)CC)N(C)C(=O)[C@H](C2CCCC2)N(C)C(=O)C2(CC(C)(C)C2)NC(=O)[C@@H]2C[C@@H](C)CN2C(=O)[C@H](CCc2ccc(C(F)(F)F)c(Cl)c2)NC(=O)CN(C)C(=O)[C@H](Cc2ccc(C)cc2)N2CC/C=C\C[C@@H](C2=O)N(C)C(=O)CN(C)C1=O [PP1876] | A (a compound having 10 or more and less than 20 is denoted as A) | A (a compound having 10 or more and less than 20 is denoted as A)
9 | 11.3 | 0.34 | CC[C@H](C)[C@@H]1NC(=O)[C@H](C(C)C)N(C)C(=O)C[C@@H](C(=O)N(C)CC)N(C)C(=O)[C@H](C2CCCC2)N(C)C(=O)C2(CC(C)(C)C2)NC(=O)[C@@H]2C[C@H](C)CN2C(=O)[C@H](CCc2ccc(C(F)(F)F)c(OC)c2)NC(=O)CN(C)C(=O)[C@H](Cc2ccc(C(F)(F)F)cc2)N2CC/C=C\C[C@@H](C2=O)N(C)C(=O)CN(C)C1=O [PP2003] | B (a compound having 3 or more and less than 10 is denoted as B) | A (a compound having 10 or more and less than 20 is denoted as A)
10 | 11.1 | 0.19 | CCCN(C)C(=O)[C@@H]1CC(=O)N(C)[C@@H](CC(F)F)C(=O)N[C@@H]([C@@H](C)CC)C(=O)N(C)CC(=O)N(C)[C@H]2C/C=C\CCN(C2=O)[C@@H](Cc2ccc(C(F)(F)F)cc2)C(=O)N(C)CC(=O)N[C@@H](CCc2ccc(C(F)(F)F)c(OC)c2)C(=O)N2C[C@@H](C)C[C@H]2C(=O)NC2(CC(C)(C)C2)C(=O)N(C)[C@@H](C2CCCC2)C(=O)N1C [PP1989] | A (a compound having 10 or more and less than 20 is denoted as A) | A (a compound having 10 or more and less than 20 is denoted as A)
11 | 8.3 | 0.19 | CCCN(C)C(=O)[C@@H]1CC(=O)N(C)[C@@H](C(C)C)C(=O)N[C@@H]([C@@H](C)CC)C(=O)N(C)CC(=O)N(C)[C@H]2C/C=C\CCN(C2=O)[C@@H](Cc2ccc(C(F)(F)F)cc2)C(=O)N(C)CC(=O)N[C@@H](CCc2ccc(C(F)(F)F)c(OC)c2)C(=O)N2C[C@H](OCC)C[C@H]2C(=O)NC2(CCC2)C(=O)N(C)[C@@H](C2CCCC2)C(=O)N1C [PP2020] | A (a compound having 10 or more and less than 20 is denoted as A) | A (a compound having 10 or more and less than 20 is denoted as A)
12 | 7.4 | 0.037 | CC[C@H](C)[C@@H]1NC(=O)[C@H](C)N(C)C(=O)C[C@@H](C(=O)N(C)C)N(C)C(=O)[C@H](C2CCCC2)N(C)C(=O)C2(CC(C)(C)C2)NC(=O)[C@@H]2CC(F)(F)CN2C(=O)[C@H](CCc2cc(F)c(C(F)(F)F)c(F)c2)NC(=O)CN(C)C(=O)[C@H](Cc2ccc(C(F)(F)F)cc2)N2CC/C=C\C[C@@H](C2=O)N(C)C(=O)CN(C)C1=O [PP1707] | A (a compound having 10 or more and less than 20 is denoted as A) | AA (a compound having 20 or more is denoted as AA)
13 | 5.8 | 0.082 | CC[C@H](C)[C@@H]1NC(=O)[C@H](CC2CCC2)N(C)C(=O)C[C@@H](C(=O)N(C)C)N(C)C(=O)[C@H](C2CCCC2)N(C)C(=O)C2(CCC2)N(C)C(=O)[C@@H]2CCCN2C(=O)[C@H](CCc2cc(F)c(C(F)(F)F)c(F)c2)NC(=O)CN(C)C(=O)[C@H](Cc2ccc(C)cc2)N2CC/C=C\C[C@@H](C2=O)N(C)C(=O)CN(C)C1=O [PP1802] | B (a compound having 3 or more and less than 10 is denoted as B) | A (a compound having 10 or more and less than 20 is denoted as A)
14 | 5.6 | 0.11 | CCCN(C)C(=O)[C@@H]1CC(=O)N(C)[C@@H](COCC)C(=O)N[C@@H]([C@@H](C)CC)C(=O)N(C)CC(=O)N(C)[C@H]2C/C=C\CCN(C2=O)[C@@H](Cc2ccc(C(F)(F)F)cc2)C(=O)N(C)CC(=O)N[C@@H](CCc2ccc(C(F)(F)F)c(OC)c2)C(=O)N2C[C@H](OCC)C[C@H]2C(=O)NC2(CCC2)C(=O)N(C)[C@@H](C2CCCC2)C(=O)N1C [PP2015] | B (a compound having 3 or more and less than 10 is denoted as B) | A (a compound having 10 or more and less than 20 is denoted as A)
15 | 2.6 | 0.082 | CC[C@H](C)[C@@H]1NC(=O)[C@H](CC(F)(F)F)N(C)C(=O)C[C@@H](C(=O)N(C)C)N(C)C(=O)[C@H](C2CCCC2)N(C)C(=O)C2(CC(C)(C)C2)NC(=O)[C@@H]2C[C@H](C)CN2C(=O)[C@H](CCc2cc(F)c(C(F)(F)F)c(F)c2)NC(=O)CN(C)C(=O)[C@H](Cc2ccc(C(F)(F)F)cc2)N2CC/C=C\C[C@@H](C2=O)N(C)C(=O)CN(C)C1=O [PP1682] | A (a compound having 10 or more and less than 20 is denoted as A) | AA (a compound having 20 or more is denoted as AA)

Source: patent US20240158446A1, “CYCLIC COMPOUND HAVING SELECTIVE INHIBITORY ACTION ON KRAS OVER HRAS AND NRAS” (CHUGAI SEIYAKU KABUSHIKI KAISHA, priority 2021, published 2024)
